Data set [1] is described as follows: Binding affinity to dog mu opioid receptor. Set-up: species or system Canis lupus familiaris.
The nature of data set [2]: Binding affinity to dog kappa opioid receptor. More on the design: species or system Canis lupus familiaris.
For data set [3], the target named is Mu-type opioid receptor (Homo sapiens, UniProt P35372). In words: Displacement of [3H]DAMGO from human mu opioid receptor. (In general: Loss of bound radioactivity is the signal in a displacement assay; it reports binding, not function.)
Chain of Mu-type opioid receptor (Homo sapiens, UniProt P35372) (P35372 whole entry): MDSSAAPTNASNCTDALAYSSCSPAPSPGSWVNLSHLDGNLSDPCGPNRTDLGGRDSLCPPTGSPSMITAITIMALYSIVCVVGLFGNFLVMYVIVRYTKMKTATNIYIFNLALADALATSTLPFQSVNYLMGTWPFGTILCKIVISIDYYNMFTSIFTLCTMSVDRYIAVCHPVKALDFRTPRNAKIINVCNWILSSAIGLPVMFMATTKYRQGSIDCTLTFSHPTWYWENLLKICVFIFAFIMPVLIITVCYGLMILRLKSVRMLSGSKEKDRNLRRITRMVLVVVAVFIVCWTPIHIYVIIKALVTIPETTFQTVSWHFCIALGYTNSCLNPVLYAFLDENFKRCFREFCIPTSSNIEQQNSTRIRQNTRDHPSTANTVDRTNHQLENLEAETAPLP
Data set [4] can be described thus: Binding affinity to dog delta opioid receptor. More on the design: species or system Canis lupus familiaris.
The subject of data set [5] is CHO. In words: Genotoxicity in CHO cells by micronucleus assay. In kind it is toxicity, cell-based, Cricetulus griseus. To be noted: chinese hamster.
The target of data set [6] is T1, Cytochrome P450 2D15 (Canis lupus familiaris, UniProt Q29473).
T1 sequence (Q29473 whole entry): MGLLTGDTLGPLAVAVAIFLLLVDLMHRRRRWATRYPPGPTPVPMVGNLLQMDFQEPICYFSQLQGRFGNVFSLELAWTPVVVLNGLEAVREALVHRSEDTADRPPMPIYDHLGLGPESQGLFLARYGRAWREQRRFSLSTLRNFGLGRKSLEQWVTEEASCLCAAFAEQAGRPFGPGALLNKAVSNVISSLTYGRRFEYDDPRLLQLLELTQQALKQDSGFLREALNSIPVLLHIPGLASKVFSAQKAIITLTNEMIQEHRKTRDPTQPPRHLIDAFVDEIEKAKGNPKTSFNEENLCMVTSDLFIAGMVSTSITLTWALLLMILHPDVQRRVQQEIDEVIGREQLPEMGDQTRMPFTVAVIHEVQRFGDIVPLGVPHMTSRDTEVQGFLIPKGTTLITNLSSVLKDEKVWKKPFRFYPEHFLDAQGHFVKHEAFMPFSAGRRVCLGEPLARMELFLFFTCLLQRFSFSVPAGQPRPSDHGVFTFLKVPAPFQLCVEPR
In words: Inhibition of dog CYP2D15. In kind it is ADME.

Data set [7] has as its target Mu-type opioid receptor (Cavia porcellus, UniProt P97266). In words: Antagonist activity at mu opioid receptor in guinea pig longitudinal muscle myenteric plexus assessed as inhibition of DAMGO-induced contraction after 10 mins. The format is functional. Particulars: read-out: pA2 (converted).
Data set [8] relates to Mus musculus. In words: Inhibition of morphine-induced antinociception in ICR mouse assessed as antagonism of morphine response to heat-induced tail flick at 10 mg/kg, sc preincubated for 15 mins before the addition of morphine assessed after 30 mins. To be noted: route subcutaneous. In kind it is functional.
The test system of data set [9] is Canis familiaris. In words: Antipruritic activity in dog with flea allergy dermatitis at 2 mg/kg, po upto 12 hrs. The format is functional, organism-based. More on the design: dose 2 mg/kg. Particulars: Canis lupus familiaris.

SMILES strings stand for the structures. The source made the active and inactive calls. The calls are words filed in the database; no cut-off is given here. Some results are limits rather than exact numbers.

For orientation: Ki means a dissociation constant, usually derived from enzyme kinetics or from competition with a known ligand. A lower Ki goes with higher affinity. Broadly, the inhibition in vivo is the change of the read-out against control, counted positive when it falls.

Chain of Mu-type opioid receptor (Cavia porcellus, UniProt P97266) (P97266 whole entry): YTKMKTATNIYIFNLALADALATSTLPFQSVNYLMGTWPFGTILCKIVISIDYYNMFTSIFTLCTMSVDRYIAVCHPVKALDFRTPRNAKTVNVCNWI

Regarding `CS(=O)(=O)Nc1cccc([C@H]2[C@@H]3CN(CCCc4ccccc4)C[C@@H]32)c1`, the Ki in data set [1] is 379 nM; in data set [2], 1580 nM; in [3], 168 nM; in data set [4], greater than 10000 nM.

Consider `C[C@]1(c2cccc(NS(C)(=O)=O)c2)[C@@H]2CN(CCCc3ccccc3)C[C@@H]21`, for which the Activity result in data set [5] is reported as “Non-toxic”. For the same molecule, the Ki in data set [1] came out at 4.1 nM; in data set [2], 94 nM; in [3], 4.79 nM; in data set [4], 183 nM. Further, the “inhibition (INH)” value in [6] is given as “Active”. In addition, the Kb in [7] is 10.7 nM. Moreover, the inhibition in vivo at 10 mg/kg in data set [8] worked out at 89%. For the same molecule, the result in data set [9] was Active.

The values are drawn from ChEMBL document CHEMBL1806441, “Discovery and synthesis of a new class of opioid ligand having a 3-azabicyclo[3.1.0]hexane core. An example of a 'magic methyl' giving a 35-fold improvement in binding” (Bioorg Med Chem Lett, 2011).
